# “Also recorded” adds a separate entry of the source.
# Experiment: Safety and tolerability of repeated doses 40 and 80 mg (Example 4)
# Format: in vivo, human
# Text: Safety and tolerability of VB-201 was judged by evaluating the incidence of abnormal findings in the following measurements: vital signs: systolic and diastolic blood pressure, heart rate, respiratory rate, body temperature; physical examination; 12-lead electrocardiogram; laboratory tests of blood samples for: complete blood count, prothrombin time/partial thromboplastin time, LDL- and HDL-cholesterol, total cholesterol, triglycerides, glucose, blood urea nitrogen, sodium, potassium, creatinine, calcium, phosphorus, creatinine phosphokinase, lactate dehydrogenase, aspartate transaminase, alanine transaminase, γ-glutamyl transferase, alkaline phosphatase, protein, albumin, total bilirubin, total IgM and IgG antibodies, interleukin-12/23 p40, tumor necrosis factor-α, and interleukin-6, as well as routine urinalysis; and all adverse events, whether or not considered serious, and whether or not considered related to the investigational agent, according to the criteria for Good Clinical Practice. Treatment-emergent adverse events were defined as any adverse event that started on or after administration of the first dose of VB-201, and no more than 30 days after administration of the last dose, or are ongoing at the time of the first dose and worsened in severity or frequency during treatment. […] The subjects were all healthy volunteers. […] 6 subjects received a placebo. […]
smiles,measurement,setting,value
"CCCCCCCCCCCCCCCCOCC(COP(=O)([O-])OCC[N+](C)(C)C)OCCCCC(=O)O (centres unmarked) [VB-201, 1-hexadecyl-2-(4′-carboxybutyl)-glycerol-3-phosphocholine]",serious adverse events,"daily 40 or 80 mg, 14 or 28 day cohorts",No serious adverse events were reported
same,safety and tolerability,daily doses of up to 80 mg for up to 28 days,"both safe and well-tolerated; also recorded: well-tolerated by subjects, and no substantial toxicity was observed"
